ChEMBL document CHEMBL5550081, “Is it still worth renewing nucleoside anticancer drugs nowadays?” (Eur J Med Chem, 2024)

Experiments:
A549 [1] = assay: Cytotoxicity against human A549 cells assessed as reduction in cell growth incubated for 24 hrs by MTT assay; type: functional, cell-based; settings: A549, 24 h
MCF7 [2] = assay: Cytotoxicity against human MCF7 cells assessed as reduction in cell growth incubated for 24 hrs by MTT assay; type: functional, cell-based; settings: MCF7, 24 h
MDA-MB-231 [3] = assay: Cytotoxicity against human MDA-MB-231 cells assessed as reduction in cell growth incubated for 24 hrs by MTT assay; type: functional, cell-based; settings: MDA-MB-231, 24 h
A549 [4] = assay: Antiproliferative activity against human A549 cells assessed as reduction in cell growth incubated for 72 hrs by SRB assay; type: functional, cell-based; settings: A549, 72 h
HCT-116 [5] = assay: Antiproliferative activity against human HCT-116 cells assessed as reduction in cell growth incubated for 72 hrs by SRB assay; type: functional, cell-based; settings: HCT-116, 72 h
PC-3 [6] = assay: Antiproliferative activity against human PC-3 cells assessed as reduction in cell growth incubated for 72 hrs by SRB assay; type: functional, cell-based; settings: PC-3, 72 h
MDA-MB-231 [7] = assay: Antiproliferative activity against human MDA-MB-231 cells assessed as reduction in cell growth incubated for 72 hrs by SRB assay; type: functional, cell-based; settings: MDA-MB-231, 72 h
SNU-638 = assay: Antiproliferative activity against human SNU-638 cells assessed as reduction in cell growth incubated for 72 hrs by SRB assay; type: functional, cell-based; settings: SNU-638, 72 h
SK-HEP1 [8] = assay: Antiproliferative activity against human SK-HEP1 cells assessed as reduction in cell growth incubated for 72 hrs by SRB assay; type: functional, cell-based; settings: SK-HEP1, 72 h
SARS-CoV-2 = assay: Antiviral activity against SARS-CoV-2 infected in African green monkey Vero E6 cells assessed as inhibition of viral replication by qRT-PCR analysis; type: functional, organism-based; settings: Severe acute respiratory syndrome coronavirus 2, Vero C1008
A549 [9] = assay: Cytotoxicity against human A549 cells; type: functional, cell-based
HCT-116 [10] = assay: Cytotoxicity against human HCT-116 cells; type: functional, cell-based
SK-HEP1 [11] = assay: Cytotoxicity against human SK-HEP1 cells; type: functional, cell-based
HeLa [12] = assay: Cytotoxicity against human HeLa cells; type: functional, cell-based
Ishikawa = assay: Cytotoxicity against human Ishikawa cells; type: functional, cell-based
L929 = assay: Cytotoxicity against mouse L929 cells assessed as reduction in cell viability; type: functional, cell-based
HeLa [13] = assay: Antiproliferative activity against human HeLa cells assessed as reduction in cell viability incubated for 24 hrs by MTT assay; type: functional, cell-based
PANC-1 [14] = assay: Antiproliferative activity against human PANC-1 cells assessed as reduction in cell viability incubated for 24 hrs by MTT assay; type: functional, cell-based; settings: PANC-1, 24 h
PRMT5/MEP50 complex = PRMT5/MEP50 complex (Homo sapiens, UniProt O14744); assay: Inhibition of PRMT5/MEP50 (unknown origin); type: cell-based, HCC4006
PRMT5/MEP50 complex, sequence (O14744 whole entry): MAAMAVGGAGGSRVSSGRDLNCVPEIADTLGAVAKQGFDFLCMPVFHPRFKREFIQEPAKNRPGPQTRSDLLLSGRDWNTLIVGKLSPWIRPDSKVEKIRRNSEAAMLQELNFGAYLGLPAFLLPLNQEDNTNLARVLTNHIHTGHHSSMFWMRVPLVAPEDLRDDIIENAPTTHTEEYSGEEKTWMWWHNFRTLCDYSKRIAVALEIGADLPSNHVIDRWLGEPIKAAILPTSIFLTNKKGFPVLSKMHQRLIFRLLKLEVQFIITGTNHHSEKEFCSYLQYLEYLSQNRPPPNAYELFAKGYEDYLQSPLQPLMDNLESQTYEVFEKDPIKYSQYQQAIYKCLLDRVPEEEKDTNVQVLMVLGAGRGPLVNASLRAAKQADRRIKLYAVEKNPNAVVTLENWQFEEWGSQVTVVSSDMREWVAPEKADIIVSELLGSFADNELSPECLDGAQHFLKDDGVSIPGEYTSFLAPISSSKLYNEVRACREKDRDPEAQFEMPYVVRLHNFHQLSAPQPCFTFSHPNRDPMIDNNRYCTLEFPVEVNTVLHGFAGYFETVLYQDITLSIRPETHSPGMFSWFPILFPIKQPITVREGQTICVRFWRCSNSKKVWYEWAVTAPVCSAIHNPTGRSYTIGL
PRMT5/MEP50 complex, sequence (Q9BQA1 whole entry, further chain): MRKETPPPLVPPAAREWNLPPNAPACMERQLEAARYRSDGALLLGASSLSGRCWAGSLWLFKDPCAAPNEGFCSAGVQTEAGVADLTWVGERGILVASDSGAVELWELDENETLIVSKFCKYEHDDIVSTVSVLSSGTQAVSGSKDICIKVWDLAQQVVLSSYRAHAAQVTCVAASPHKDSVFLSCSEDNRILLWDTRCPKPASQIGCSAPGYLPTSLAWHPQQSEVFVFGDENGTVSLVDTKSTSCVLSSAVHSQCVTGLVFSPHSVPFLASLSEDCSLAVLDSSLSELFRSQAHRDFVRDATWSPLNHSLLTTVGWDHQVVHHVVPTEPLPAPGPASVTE

MCF7 [15] = assay: Antiproliferative activity against human MCF7 cells assessed as cell growth inhibition incubated for 48 hrs by MTT assay; type: functional, cell-based; settings: MCF7, 48 h
Z-138 = assay: Antiproliferative activity against human Z138 cells assessed as cell growth inhibition incubated for 48 hrs by MTT assay; type: functional, cell-based; settings: Z-138, 48 h
IMR-32 = assay: Cytotoxicity against human IMR-32 cells assessed as reduction in cell viability incubated for 48 hrs by MTT assay; type: functional, cell-based; settings: IMR-32, 48 h
PC-3 [16] = assay: Antiproliferative activity against human PC-3 cells assessed as reduction in cell growth incubated for 24 hrs by MTT assay; type: functional, cell-based; settings: PC-3, 24 h
PC-3 [17] = assay: cells; settings: Homo sapiens, PC-3, 48 h
MCF7 [18] = assay: cells; settings: Homo sapiens, MCF7, 48 h
U-937 = assay: Cytotoxicity against human U-937 cells assessed as reduction in cell growth incubated for 72 hrs by MTT assay; type: functional, cell-based; settings: U-937, 72 h
HCT-116 [19] = assay: Cytotoxicity against human HCT-116 cells assessed as reduction in cell growth incubated for 72 hrs by MTT assay; type: functional, cell-based; settings: HCT-116, 72 h
[20] = Inhibition of Hepatitis C virus NS5B polymerase; design: species or system Hepacivirus hominis
A549 [21] = assay: Cytotoxicity against human A549 cells assessed as reduction in cell viability measured for 48 hrs by MTT assay; type: functional
MCF7 [22] = assay: Cytotoxicity against human MCF7 cells assessed as reduction in cell viability measured for 48 hrs by MTT assay; type: functional
MDA-MB-231 [23] = assay: Anticancer activity against human MDA-MB-231 cells; type: functional, cell-based
U-87 MG = assay: Cytotoxicity against human U-87 MG cells; type: functional, U-87MG ATCC
PANC-1 [24] = assay: Cytotoxicity against human PANC-1 cells; type: functional

**Q.** Which IC50 (A549 [1]) does the source give for `CC(=O)Nc1ccn(-c2nnc(Cn3cnc4c3c(=O)n(C)c(=O)n4C)o2)c(=O)n1` here?
**A.** 20.4 µM

**Q.** And the IC50 (MCF7 [2])?
**A.** 25.2 µM

**Q.** What about the IC50 (MDA-MB-231 [3]) of the same compound?
**A.** 24.7 µM

**Q.** For `C#Cc1cn([C@@H]2S[C@H](CO)[C@@H](O)[C@H]2O)c2ncnc(N)c12`, which IC50 (A549 [4]) is on record?
**A.** 60 nM

**Q.** What about the IC50 (HCT-116 [5]) of the same compound?
**A.** 30 nM

**Q.** And the IC50 (PC-3 [6])?
**A.** 4 nM

**Q.** And the IC50 (MDA-MB-231 [7])?
**A.** 50 nM

**Q.** What about the IC50 (SNU-638) of the same compound?
**A.** 30 nM

**Q.** What about the IC50 (SK-HEP1 [8]) of the same compound?
**A.** 50 nM

**Q.** With `[2H]C([2H])(O)[C@H]1O[C@@](C#N)(c2ccc3c(N)ncnn23)[C@H](O)[C@@H]1O` as the compound, how does the EC50 (SARS-CoV-2) read?
**A.** 250 nM

**Q.** For `Nc1ncnc2c1c1sc3c4sccc4sc3c1n2[C@H]1C[C@@H](O)[C@@H](CO)O1`, which IC50 (A549 [9]) is on record?
**A.** 14.2 µM

**Q.** And the IC50 (HCT-116 [10])?
**A.** 1910 nM

**Q.** And the IC50 (SK-HEP1 [11])?
**A.** 480 nM

**Q.** What does the source list for `O=c1[nH]c(=O)n(C[C@H](O)CO)cc1C#Cc1cc2ccccc2c2ccccc12`?
**A.** IC50 (HeLa [12]): 39.3 µM; IC50 (Ishikawa): 50.1 µM; IC50 (L929): 38.4 µM; IC50 (HeLa [13]): 39.3 µM; IC50 (PANC-1 [14]): 39.3 µM

**Q.** With `Cc1ncnc2c1ccn2[C@@H]1O[C@@H]2[C@H](Cc3ccc4cc(Br)c(N)nc4c3)OC[C@]2(O)[C@H]1O` as the compound, how does the IC50 (PRMT5/MEP50 complex) read?
**A.** 0.8 nM

**Q.** What about the IC50 (MCF7 [15]) of the same compound?
**A.** 3 nM

**Q.** What about the IC50 (Z-138) of the same compound?
**A.** 15 nM

**Q.** What does the source list for `C[C@H](CCC(=O)OCc1cn(C[C@H]2O[C@@H](n3ccc(=O)[nH]c3=O)[C@@H]3OC(C)(C)O[C@@H]32)nn1)[C@H]1CC[C@H]2[C@@H]3[C@H](O)C[C@@H]4C[C@H](O)CC[C@]4(C)[C@H]3C[C@H](O)[C@]12C`?
**A.** IC50 (IMR-32): 16.8 µM; IC50 (PC-3 [16]): 17.9 µM; IC50 (HeLa [13]): 96 µM; IC50 (PC-3 [17]): 17.9 µM; IC50 (MCF7 [18]): 8.08 µM

**Q.** For `Nc1ncnc2c1ncn2Cc1ccc(-c2cn(CCCCCCC(=O)NO)nn2)cc1`, which IC50 (U-937) is on record?
**A.** 1320 nM

**Q.** What about the IC50 (HCT-116 [19]) of the same compound?
**A.** 17.4 µM

**Q.** With `Nc1ncnc2c1ncn2[C@@H]1OC2(CC[C@H]2O)[C@@H](O)[C@H]1O` (stereo not given in full) as the compound, how does the IC50 (PRMT5/MEP50 complex) read?
**A.** 900 nM

**Q.** For `C#C[C@@]1(N)[C@H](O)[C@@H](CO)O[C@H]1n1cnc2c(=O)[nH]c(N)nc21`, which IC50 [20] is on record?
**A.** 1100 nM

**Q.** For `CCCCCCCCCCCCc1ccc(-n2cc(CNCCO)nn2)cc1`, which IC50 (PC-3 [16]) is on record?
**A.** 11 µM

**Q.** And the IC50 (PANC-1 [14])?
**A.** 4.9 µM

**Q.** For `C=C(N)NCCOc1cccc2c1Nc1nc(=O)n([C@@H]3O[C@H](CO)[C@@H](O)[C@H]3O)cc1O2`, which CC50 (A549 [21]) is on record?
**A.** 800 nM

**Q.** What about the CC50 (MCF7 [22]) of the same compound?
**A.** 4300 nM

**Q.** For `[N-]=[N+]=N[C@@H]1[C@@H](O)[C@H](n2c(-c3c4ccccc4cc4ccccc34)nc3ccccc32)O[C@@H]1CO`, which IC50 (MDA-MB-231 [23]) is on record?
**A.** 420 nM

**Q.** For `COc1cccc2c1C(=O)c1c(O)c3c(c(O)c1C2=O)C[C@@](O)(C(=O)CO)C[C@@H]3O[C@H]1C[C@H](N)[C@H](O)[C@H](C)O1` [DOXORUBICIN], which IC50 (IMR-32) is on record?
**A.** 0.043 µM

**Q.** What about the CC50 (A549 [21]) of the same compound?
**A.** 30 nM

**Q.** And the CC50 (MCF7 [22])?
**A.** 900 nM

**Q.** And the IC50 (PC-3 [17])?
**A.** 0.336 µM

**Q.** What about the IC50 (MCF7 [18]) of the same compound?
**A.** 0.44 µM

**Q.** Which IC50 (HeLa [12]) does the source give for `Nc1ccn([C@@H]2O[C@H](CO)[C@@H](O)C2(F)F)c(=O)n1` [GEMCITABINE] here?
**A.** 0.24 µM

**Q.** And the IC50 (Ishikawa)?
**A.** 20.3 µM

**Q.** And the IC50 (L929)?
**A.** 0.23 µM

**Q.** What does the source list for `Nc1ccn([C@@H]2S[C@H](CO)[C@@H](O)[C@@H]2O)c(=O)n1` [THIARABINE]?
**A.** CC50 (U-87 MG): 590 nM; CC50 (PANC-1 [24]): 590 nM
